Test results: patent publication US20230374034A1, “NOVEL BICYCLIC COMPOUNDS” (PRISM BIOLAB CO., LTD., priority 2020, published 2023)

Each compound was assayed on NICD (Notch intracellular domain) CSL-bla reporter in HeLa cells (assay: Notch assay (CellSensor T-REx NICD CSL-bla HeLa beta-lactamase reporter; Method 1 / Method 2)). Conditions: Homo sapiens, 10 μM compound, Method 1 (10× compound prepared in assay medium, added to plated cells), read-out: inhibiton (%) at 10 μM.
Type: cell-based
Summary of the method: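 HeLa cells carrying doxycycline-inducible NICD and a CSL-driven beta-lactamase reporter, 10^3 cells/well, were treated with compound plus doxycycline for 16-20 h at 37 °C. CCF4-AM substrate was loaded for 4 h at room temperature; background-subtracted blue (460 nm)/green (530 nm) emission ratio taken per well.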

Row | Compound | inhibition at 10 µM [%]
1 | CCCC[C@H]1ON(C(=O)OCc2cccc3ccccc23)C2CN(CC3CCCCC3)C(=O)[C@H](Cc3ccc(O)cc3)N2C1=O (stereo partly drawn) [Compound I-10, (3R,6S)-naphthalen-1-ylmethyl 3-butyl-8-(cyclohexylmethyl)-6-(4-hydroxybenzyl)-4,7-dioxohexahydropyrazino[2,1-c][1,2,4]oxadiazine-1(6H)-carboxylate] | 57.2
2 | CC(C)CCN1CC2N(C(=O)OCc3cccc4ccccc34)O[C@H](Cc3ccccc3)C(=O)N2[C@@H](Cc2ccc(O)cc2)C1=O (stereo partly drawn) [Compound I-16, (3R,6S)-naphthalen-1-ylmethyl 3-benzyl-6-(4-hydroxybenzyl)-8-isopentyl-4,7-dioxohexahydropyrazino[2,1-c][1,2,4]oxadiazine-1(6H)-carboxylate] | 79.8
3 | CC(C)CCN1CC2N(C(=O)OCc3cccc4ccccc34)O[C@H](C(C)C)C(=O)N2[C@@H](Cc2ccc(O)cc2)C1=O (stereo partly drawn) [Compound I-9, (3R,6S)-naphthalen-1-ylmethyl 6-(4-hydroxybenzyl)-8-isopentyl-3-isopropyl-4,7-dioxohexahydropyrazino[2,1-c][1,2,4]oxadiazine-1(6H)-carboxylate] | 70
4 | CC(C)[C@@H]1ON(C(=O)OCc2cccc3ccccc23)C2CN(C(C)C)C(=O)[C@H](Cc3ccc(O)cc3)N2C1=O (stereo partly drawn) [Compound I-22, (3S,6S)-naphthalen-1-ylmethyl 6-(4-hydroxybenzyl)-3,8-diisopropyl-4,7-dioxohexahydropyrazino[2,1-c][1,2,4]oxadiazine-1(6H)-carboxylate] | 72.8
5 | CCCCCCOC(=O)N1O[C@@H](Cc2ccccc2)C(=O)N2C1CN(Cc1ccccc1)C(=O)[C@@H]2Cc1ccc(O)cc1 (stereo partly drawn) [Compound I-6, (35,6S)-hexyl 3,8-dibenzyl-6-(4-hydroxybenzyl)-4,7-dioxohexahydropyrazino[2,1-c][1,2,4]oxadiazine-1(6H)-carboxylate] | 62.1

Same assay, conditions: Homo sapiens, 10 μM compound, Method 2 (40 nL of 1000× compound added to plate with Echo), read-out: inhibiton (%) at 10 μM

Row | Compound | inhibition at 10 µM [%]
6 | CCCCCOC(=O)N1O[C@H](CC(C)C)C(=O)N2C1CN([C@@H](Cc1ccccc1)C(=O)NCCC(C)C)C(=O)[C@@H]2Cc1ccc(O)cc1 (stereo partly drawn) [Compound I-92, pentyl (3R,6S)-6-(4-hydroxybenzyl)-3-isobutyl-8-((S)-1-(isopentylamino)-1-oxo-3-phenylpropan-2-yl)-4,7-dioxohexahydropyrazino[2,1-c][1,2,4]oxadiazine-1(6H)-carboxylate] | 50.1
7 | CC(C)C[C@H]1ON(C(=O)OCc2ccccc2)C2CN(C3CCN(C)CC3)C(=O)[C@H](CCCCN(Cc3ccccc3)Cc3ccccc3)N2C1=O (stereo partly drawn) [Compound I-144, benzyl (3R,6S)-6-(4-(dibenzylamino)butyl)-3-isobutyl-8-(1-methylpiperidin-4-yl)-4,7-dioxohexahydropyrazino [2,1-c][1,2,4]oxadiazine-1(6H)-carboxylate] | 78.1
8 | CCCCCOC(=O)N1O[C@H](Cc2ccccc2)C(=O)N2C1CN([C@@H](CC(C)C)C(=O)NCCCc1ccc(O)cc1)C(=O)[C@@H]2CCC(N)=O (stereo partly drawn) [Compound I-127, pentyl (3R,6S)-6-(3-amino-3-oxopropyl)-3-benzyl-8-((S)-1-((3-(4-hydroxyphenyl)propyl)amino)-4-methyl-1-oxopentan-2-yl)-4,7-dioxohexahydropyrazino [2,1-c][1,2,4]oxadiazine-1(6H)-carboxylate] | 62.1
9 | CC(C)CCNC(=O)[C@H](Cc1ccc(O)cc1)N1CC2N(C(=O)OCCC(C)C)O[C@H](Cc3ccccc3)C(=O)N2[C@@H](Cc2ccc(O)cc2)C1=O (stereo partly drawn) [Compound I-107, isopentyl (3R,6S)-3-benzyl-6-(4-hydroxybenzyl)-8-((S)-3-(4-hydroxyphenyl)-1-(isopentylamino)-1-oxopropan-2-yl)-4,7-dioxohexahydropyrazino[2,1-c][1,2,4]oxadiazine-1(6H)-carboxylate] | 61.1
10 | CC(C)C[C@@H](C(=O)NCCc1ccccc1)N1CC2N(C(=O)OCCc3ccccc3)O[C@H](Cc3ccc(O)cc3)C(=O)N2[C@@H](Cc2ccc(O)cc2)C1=O (stereo partly drawn) [Compound I-115, phenethyl (3R,6S)-3,6-bis(4-hydroxybenzyl)-8-((S)-4-methyl-1-oxo-1-(phenethylamino)pentan-2-yl)-4,7-dioxohexahydropyrazino[2,1-c][1,2,4]oxadiazine-1(6H)-carboxylate] | 51.1
11 | COC(=O)N1O[C@H](CC2CCCCC2)C(=O)N2C1CN(CC1CCCCC1)C(=O)[C@@H]2CCCCN (stereo partly drawn) [Compound I-36, (3R,6S)-methyl 6-(4-aminobutyl)-3,8-bis(cyclohexylmethyl)-4,7-dioxohexahydropyrazino[2,1-c][1,2,4]oxadiazine-1(6H)-carboxylate] | 52.2
12 | CCCC[C@@H](C(=O)NCCC(C)C)N1CC2N(C(=O)OCCc3ccc(O)cc3)O[C@H](Cc3ccccc3)C(=O)N2[C@@H](Cc2ccc(O)cc2)C1=O (stereo partly drawn) [Compound I-109, 4-hydroxyphenethyl (3R,6S)-3-benzyl-6-(4-hydroxybenzyl)-8-((S)-1-(isopentylamino)-1-oxohexan-2-yl)-4,7-dioxohexahydropyrazino[2,1-c][1,2,4]oxadiazine-1(6H)-carboxylate] | 74
13 | CC(C)CCNC(=O)[C@H](CC(C)C)N1CC2N(C(=O)OCCc3ccc(O)cc3)O[C@H](CC(C)C)C(=O)N2[C@@H](Cc2ccc(O)cc2)C1=O (stereo partly drawn) [Compound I-91, 4-hydroxyphenethyl (3R,6S)-6-(4-hydroxybenzyl)-3-isobutyl-8-((S)-1-(isopentylamino)-4-methyl-1-oxopentan-2-yl)-4,7-dioxohexahydropyrazino[2,1-c][1,2,4]oxadiazine-1(6H)-carboxylate] | 51
14 | CC(C)C[C@H]1ON(C(=O)NCCC(c2ccccc2)c2ccccc2)C2CN(Cc3ccc4ccccc4c3)C(=O)[C@H](CCC(N)=O)N2C1=O (stereo partly drawn) [Compound I-55, (3R,6S)-6-(3-amino-3-oxopropyl)-N-(3,3-diphenylpropyl)-3-isobutyl-8-(naphthalen-2-ylmethyl)-4,7-dioxohexahydropyrazino[2,1-c][1,2,4]oxadiazine-1(6H)-carboxamide] | 58.7
15 | CC[C@H](C)CN1CC2N(C(=O)OCC3CCCCC3)O[C@H](CC(C)C)C(=O)N2[C@@H](CCCCN)C1=O (stereo partly drawn) [Compound I-31, (3R,6S)-cyclohexylmethyl 6-(4-aminobutyl)-3-isobutyl-8-((S)-2-methylbutyl)-4,7-dioxohexahydropyrazino[2,1-c][1,2,4]oxadiazine-1(6H)-carboxylate] | 67.1
16 | CC(C)C[C@H]1ON(C(=O)OCCc2ccc(O)cc2)C2CN([C@@H](Cc3ccccc3)C(=O)NCCc3ccccc3)C(=O)[C@H](Cc3ccc(O)cc3)N2C1=O (stereo partly drawn) [Compound I-93, 4-hydroxyphenethyl (3R,6S)-6-(4-hydroxybenzyl)-3-isobutyl-4,7-dioxo-8-((S)-1-oxo-1-(phenethylamino)-3-phenylpropan-2-yl)hexahydropyrazino[2,1-c][1,2,4]oxadiazine-1(6H)-carboxylate] | 76.3
17 | CC(C)NC(=O)N1O[C@H](CCCNC(=N)N)C(=O)N2C1CN(Cc1cccc3ccccc13)C(=O)[C@@H]2C (stereo partly drawn) [Compound I-51, (3R,6S)-3-(3-guanidinopropyl)-N-isopropyl-6-methyl-8-(naphthalen-1-ylmethyl)-4,7-dioxohexahydropyrazino[2,1-c][1,2,4]oxadiazine-1(6H)-carboxamide] | 55.3
18 | CC(C)CCOC(=O)N1O[C@H](Cc2ccc(O)cc2)C(=O)N2C1CN([C@@H](CC(C)C)C(=O)NCCc1ccccc1)C(=O)[C@@H]2Cc1ccc(O)cc1 (stereo partly drawn) [Compound I-114, isopentyl (3R,6S)-3,6-bis(4-hydroxybenzyl)-8-((S)-4-methyl-1-oxo-1-(phenethylamino)pentan-2-yl)-4,7-dioxohexahydropyrazino[2,1-c][1,2,4]oxadiazine-1(6H)-carboxylate] | 56.3
19 | CC(C)CCCNC(=O)[C@H](CC(C)C)N1CC2N(C(=O)OCCc3ccc(O)cc3)O[C@H](Cc3ccccc3)C(=O)N2[C@@H](Cc2ccc(O)cc2)C1=O (stereo partly drawn) [Compound I-104, 4-hydroxyphenethyl (3R,6S)-3-benzyl-6-(4-hydroxybenzyl)-8-((S)-4-methyl-1-((4-methylpentyl)amino)-1-oxopentan-2-yl)-4,7-dioxohexahydropyrazino[2,1-c][1,2,4]oxadiazine-1(6H)-carboxylate] | 70.2
20 | CC(C)C[C@H]1ON(C(=O)OCc2ccccc2)[C@H]2CN(C3CCN(C)CC3)C(=O)[C@H](CCCCNCc3ccc4ccccc4n3)N2C1=O [Compound I-145, benzyl (3R,6S,9aS)-3-isobutyl-8-(1-methylpiperidin-4-yl)-4,7-dioxo-6-(4-((quinolin-2-ylmethyl)amino)butyl) hexahydropyrazino[2,1-c][1,2,4]oxadiazine-1(6H)-carboxylate] | 89
21 | CC(C)C[C@H]1ON(C(=O)NCCC(c2ccccc2)c2ccccc2)C2CN(CCC(c3ccccc3)c3ccccc3)C(=O)[C@H](CCC(N)=O)N2C1=O (stereo partly drawn) [Compound I-56, (3R,6S)-6-(3-amino-3-oxopropyl)-N,8-bis(3,3-diphenylpropyl)-3-isobutyl-4,7-dioxohexahydropyrazino[2,1-c][1,2,4]oxadiazine-1(6H)-carboxamide] | 53
22 | CC(C)CCCNC(=O)[C@H](Cc1ccc(O)cc1)N1CC2N(C(=O)OCCC(C)C)O[C@H](CC(C)C)C(=O)N2[C@@H](Cc2ccc(O)cc2)C1=O (stereo partly drawn) [Compound I-98, isopentyl (3R,6S)-6-(4-hydroxybenzyl)-8-((S)-3-(4-hydroxyphenyl)-1-((4-methylpentyl)amino)-1-oxopropan-2-yl)-3-isobutyl-4,7-dioxohexahydropyrazino [2,1-c][1,2,4]oxadiazine-1(6H)-carboxylate] | 60.4
23 | C[C@H]1C(=O)N(CCC(c2ccccc2)c2ccccc2)CC2N(C(=O)OCC3CCCCC3)O[C@H](CCCNC(=N)N)C(=O)N21 (stereo partly drawn) [Compound I-53, (3R,6S)-cyclohexylmethyl 8-(3,3-diphenylpropyl)-3-(3-guanidinopropyl)-6-methyl-4,7-dioxohexahydropyrazino[2,1-c][1,2,4]oxadiazine-1(6H)-carboxylate] | 53.6
